# In PubChem BioAssay AID270 (DTP/NCI, 2004):
# “And” between values parts separate entries of the source, which are not always exact repeats. Equal values may be shown once. Inconclusive results are not listed.
# Test system: BDF1 mice, s.c. Lewis lung carcinoma, T/C %
# Experiment: NCI In Vivo Anticancer Drug Screen. Data for tumor model Lewis Lung Carcinoma (subcutaneous) in B6D2F1 (BDF1) mice
# Summary of the method: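 First, mice carry a transplantable tumor. Next, groups receive either compound or vehicle. Finally, survival or tumor dimensions in the dosed animals are divided by the corresponding control figure.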
# [1] = endpoint: mean tumor weight, dose: 12.5 mg/kg/injection, schedule: Q01DX011 (ip), vehicle: saline, higher = larger tumour
# [2] = endpoint: mean tumor weight, dose: 25.0 mg/kg/injection, schedule: Q01DX011 (ip), vehicle: saline, higher = larger tumour
# [3] = endpoint: mean tumor weight, dose: 50.0 mg/kg/injection, schedule: Q01DX011 (ip), vehicle: saline, higher = larger tumour
# [4] = endpoint: median survival time, dose: 12.5 mg/kg/injection, schedule: Q01DX009 (ip), vehicle: saline, higher = longer survival
# [5] = endpoint: median survival time, dose: 25.0 mg/kg/injection, schedule: Q01DX009 (ip), vehicle: saline, higher = longer survival
# [6] = endpoint: median survival time, dose: 50.0 mg/kg/injection, schedule: Q01DX009 (ip), vehicle: saline, higher = longer survival
# [7] = endpoint: median survival time, dose: 6.25 mg/kg/injection, schedule: Q01DX009 (ip), vehicle: Klucel (hydroxypropylcellulose) (HPC), higher = longer survival
# [8] = endpoint: median survival time, dose: 12.5 mg/kg/injection, schedule: Q01DX009 (ip), vehicle: Klucel (hydroxypropylcellulose) (HPC), higher = longer survival
# [9] = endpoint: median survival time, dose: 25.0 mg/kg/injection, schedule: Q01DX009 (ip), vehicle: Klucel (hydroxypropylcellulose) (HPC), higher = longer survival
compound,measurement,setting,value
CS(=O)(=O)OCC#CCOS(C)(=O)=O,T/C,"endpoint: mean tumor weight, dose: 16.0 mg/kg/injection, schedule: Q01DX011 (ip), vehicle: saline, higher = larger tumour",91 % of control
same,T/C,"endpoint: mean tumor weight, dose: 32.0 mg/kg/injection, schedule: Q01DX011 (ip), vehicle: saline, higher = larger tumour",63 % of control
CCN(CC)CCN1C(=O)c2cccc3cccc(c23)C1=O,T/C,"endpoint: mean tumor weight, dose: 48.0 mg/kg/injection, schedule: Q01DX011 (ip), vehicle: saline, higher = larger tumour",111 % of control
same,T/C,"endpoint: mean tumor weight, dose: 73.0 mg/kg/injection, schedule: Q01DX011 (ip), vehicle: saline, higher = larger tumour",87 % of control
same,T/C,"endpoint: mean tumor weight, dose: 110.0 mg/kg/injection, schedule: Q01DX011 (ip), vehicle: saline, higher = larger tumour",69 % of control
CC(/C=N/N=C(N)N)=N/N=C(N)N,T/C,[1],96 % of control
same,T/C,[2],69 % of control
same,T/C,[3],94 % of control
O=S(=O)(Cl)c1cc(Cl)c(Cl)cc1Cl,T/C,"endpoint: mean tumor weight, dose: 133.0 mg/kg/injection, schedule: Q01DX011 (ip), vehicle: other, higher = larger tumour",71 % of control
same,T/C,"endpoint: mean tumor weight, dose: 300.0 mg/kg/injection, schedule: Q01DX011 (ip), vehicle: other, higher = larger tumour",83 % of control
same,T/C,"endpoint: mean tumor weight, dose: 450.0 mg/kg/injection, schedule: Q01DX011 (ip), vehicle: other, higher = larger tumour",28 % of control and 41 % of control
same,T/C,"endpoint: mean tumor weight, dose: 600.0 mg/kg/injection, schedule: Q01DX011 (ip), vehicle: other, higher = larger tumour",75 % of control
CCSC(=O)N1c2ccc(OC)cc2C=CC1C#N (stereo not given),T/C,"endpoint: median survival time, dose: 100.0 mg/kg/injection, schedule: Q01DX009 (ip), vehicle: saline with Tween-80, higher = longer survival",122 % of control
same,T/C,"endpoint: median survival time, dose: 200.0 mg/kg/injection, schedule: Q01DX009 (ip), vehicle: saline with Tween-80, higher = longer survival",102 % of control
same,T/C,"endpoint: median survival time, dose: 400.0 mg/kg/injection, schedule: Q01DX009 (ip), vehicle: saline with Tween-80, higher = longer survival",108 % of control
c1ccc2ncccc2c1,T/C,[2],81 % of control
same,T/C,[3],49 % of control
C=C(C)C12OC3(c4ccccc4)OC1C1C4OC4(CO)C(O)C4(O)C(=O)C(C)=CC4C1(O3)C(C)C2OC(=O)c1ccccc1 (stereo not given),T/C,"endpoint: median survival time, dose: 0.1 mg/kg/injection, schedule: Q01DX009 (ip), vehicle: saline, higher = longer survival",100 % of control
same,T/C,"endpoint: median survival time, dose: 0.2 mg/kg/injection, schedule: Q01DX009 (ip), vehicle: saline, higher = longer survival",100 % of control
same,T/C,"endpoint: median survival time, dose: 0.4 mg/kg/injection, schedule: Q01DX009 (ip), vehicle: saline, higher = longer survival",100 % of control
same,T/C,"endpoint: median survival time, dose: 0.8 mg/kg/injection, schedule: Q01DX009 (ip), vehicle: saline, higher = longer survival",94 % of control
CC[n+]1ccc(Nc2ccc(NC(=O)c3ccc(Nc4cc[n+](CC)c5ccc(N)cc45)cc3)cc2)cc1,T/C,"endpoint: mean tumor weight, dose: 0.5 mg/kg/injection, schedule: Q01DX011 (ip), vehicle: saline, higher = larger tumour",86 % of control
same,T/C,"endpoint: mean tumor weight, dose: 1.0 mg/kg/injection, schedule: Q01DX011 (ip), vehicle: saline, higher = larger tumour",107 % of control
same,T/C,"endpoint: mean tumor weight, dose: 2.0 mg/kg/injection, schedule: Q01DX011 (ip), vehicle: saline, higher = larger tumour",73 % of control
same,T/C,"endpoint: mean tumor weight, dose: 4.0 mg/kg/injection, schedule: Q01DX011 (ip), vehicle: saline, higher = larger tumour",33 % of control
S=C([S][Sn]([c]1ccccc1)([c]1ccccc1)[c]1ccccc1)N1CCCCC1,T/C,"endpoint: median survival time, dose: 3.12 mg/kg/injection, schedule: Q01DX009 (ip), vehicle: saline with Tween-80, higher = longer survival",102 % of control
same,T/C,"endpoint: median survival time, dose: 12.5 mg/kg/injection, schedule: Q01DX009 (ip), vehicle: saline with Tween-80, higher = longer survival",94 % of control
same,T/C,"endpoint: median survival time, dose: 25.0 mg/kg/injection, schedule: Q01DX009 (ip), vehicle: saline with Tween-80, higher = longer survival",89 % of control
CCCCC[C@H](O)/C=C/[C@H]1[C@H](O)CC(=O)[C@@H]1C/C=C\CCCC(=O)O,T/C,"endpoint: median survival time, dose: 50.0 mg/kg/injection, schedule: Q04DX002 (ip), vehicle: saline with Tween-80, higher = longer survival",95 % of control
NCCc1ccc(O)c(O)c1,T/C,"endpoint: median survival time, dose: 37.0 mg/kg/injection, schedule: Q01DX009 (ip), vehicle: saline, higher = longer survival",119 % of control
same,T/C,"endpoint: median survival time, dose: 75.0 mg/kg/injection, schedule: Q01DX009 (ip), vehicle: saline, higher = longer survival",109 % of control
same,T/C,"endpoint: median survival time, dose: 150.0 mg/kg/injection, schedule: Q01DX009 (ip), vehicle: saline, higher = longer survival",88 % of control
same,T/C,"endpoint: median survival time, dose: 600.0 mg/kg/injection, schedule: Q01DX009 (ip), vehicle: saline, higher = longer survival",107 % of control
CC1C[N-]CC(C)C1.CC1C[N-]CC(C)C1.CC1C[N-]CC(C)C1.CC1C[N-]CC(C)C1.[Cl][Rh][Cl] (stereo not given),T/C,"endpoint: median survival time, dose: 1.5 mg/kg/injection, schedule: Q01DX009 (ip), vehicle: saline, higher = longer survival",104 % of control
same,T/C,"endpoint: median survival time, dose: 3.0 mg/kg/injection, schedule: Q01DX009 (ip), vehicle: saline, higher = longer survival",114 % of control
same,T/C,"endpoint: median survival time, dose: 6.0 mg/kg/injection, schedule: Q01DX009 (ip), vehicle: saline, higher = longer survival",105 % of control
CS(=O)(=O)OCCC(=O)N1CCN(C(=O)CCOS(C)(=O)=O)CC1,T/C,[1],85 % of control
same,T/C,[2],66 % of control
same,T/C,[3],85 % of control
same,T/C,"endpoint: mean tumor weight, dose: 100.0 mg/kg/injection, schedule: Q01DX011 (ip), vehicle: saline, higher = larger tumour",46 % of control
same,T/C,"endpoint: median survival time, dose: 1.56 mg/kg/injection, schedule: Q01DX009 (ip), vehicle: saline, higher = longer survival",109 % of control
same,T/C,"endpoint: median survival time, dose: 3.12 mg/kg/injection, schedule: Q01DX009 (ip), vehicle: saline, higher = longer survival",103 % of control
same,T/C,"endpoint: median survival time, dose: 6.25 mg/kg/injection, schedule: Q01DX009 (ip), vehicle: saline, higher = longer survival",106 % of control
same,T/C,[4],103 % of control
same,T/C,[5],102 % of control
same,T/C,[6],114 % of control
CC(=O)OCC1CCC(NC(=O)N(CCCl)N=O)CC1 (stereo not given),T/C,"endpoint: median survival time, dose: 8.0 mg/kg/injection, schedule: Q01DX001 (ip), vehicle: Klucel (hydroxypropylcellulose) (HPC), higher = longer survival",112 % of control
same,T/C,"endpoint: median survival time, dose: 12.0 mg/kg/injection, schedule: Q01DX001 (ip), vehicle: Klucel (hydroxypropylcellulose) (HPC), higher = longer survival",124 % of control
same,T/C,"endpoint: median survival time, dose: 18.0 mg/kg/injection, schedule: Q01DX001 (ip), vehicle: Klucel (hydroxypropylcellulose) (HPC), higher = longer survival",163 % of control
same,T/C,"endpoint: median survival time, dose: 26.0 mg/kg/injection, schedule: Q01DX001 (ip), vehicle: Klucel (hydroxypropylcellulose) (HPC), higher = longer survival",160 % of control
same,T/C,"endpoint: median survival time, dose: 40.0 mg/kg/injection, schedule: Q01DX001 (ip), vehicle: Klucel (hydroxypropylcellulose) (HPC), higher = longer survival",104 % of control
O=C1C=CC(=O)c2c(Cl)ccc(O)c21,T/C,"endpoint: median survival time, dose: 0.63 mg/kg/injection, schedule: Q01DX009 (ip), vehicle: Klucel (hydroxypropylcellulose) (HPC), higher = longer survival",100 % of control
same,T/C,"endpoint: median survival time, dose: 1.25 mg/kg/injection, schedule: Q01DX009 (ip), vehicle: Klucel (hydroxypropylcellulose) (HPC), higher = longer survival",104 % of control
same,T/C,"endpoint: median survival time, dose: 2.5 mg/kg/injection, schedule: Q01DX009 (ip), vehicle: Klucel (hydroxypropylcellulose) (HPC), higher = longer survival",102 % of control
same,T/C,"endpoint: median survival time, dose: 5.0 mg/kg/injection, schedule: Q01DX009 (ip), vehicle: Klucel (hydroxypropylcellulose) (HPC), higher = longer survival",98 % of control
Cc1c2ccncc2c(C)c2c1[nH]c1ccccc12,T/C,"endpoint: median survival time, dose: 37.5 mg/kg/injection, schedule: Q04DX003 (ip), vehicle: saline with Tween-80, higher = longer survival",120 % of control
same,T/C,"endpoint: median survival time, dose: 75.0 mg/kg/injection, schedule: Q04DX003 (ip), vehicle: saline with Tween-80, higher = longer survival",87 % of control
CN(C)C=Nc1ccc2c3c(cccc13)CC2,T/C,[7],108 % of control
same,T/C,[8],107 % of control
same,T/C,[9],122 % of control
O=NN(CCCl)C(=O)NCC1CCC(CNC(=O)N(CCCl)N=O)CC1 (stereo not given),T/C,"endpoint: mean tumor weight, dose: 400.0 mg/kg/injection, schedule: Q01DX001 (ip), vehicle: carboxymethylcellulose (CMC), higher = larger tumour",50 % of control
same,T/C,"endpoint: mean tumor weight, dose: 600.0 mg/kg/injection, schedule: Q01DX001 (ip), vehicle: carboxymethylcellulose (CMC), higher = larger tumour",36 % of control
same,T/C,"endpoint: median survival time, dose: 3.12 mg/kg/injection, schedule: Q01DX009 (ip), vehicle: Klucel (hydroxypropylcellulose) (HPC), higher = longer survival",92 % of control
same,T/C,[7],93 % of control
same,T/C,[8],98 % of control
same,T/C,[9],100 % of control
COC1=NCN=C2SC=C(N)N=C12,T/C,[4],107 % of control
same,T/C,[5],122 % of control
same,T/C,[6],110 % of control
Nc1nc(N)c2nc(CNc3ccc(C(=O)NC(CCC(=O)O)C(=O)O)cc3)cnc2n1 (stereo not given),T/C,"endpoint: mean tumor weight, dose: 0.02 mg/kg/injection, schedule: Q01DX011 (ip), vehicle: other, higher = larger tumour",94 % of control
same,T/C,"endpoint: mean tumor weight, dose: 0.04 mg/kg/injection, schedule: Q01DX011 (ip), vehicle: other, higher = larger tumour",103 % of control
same,T/C,"endpoint: mean tumor weight, dose: 0.08 mg/kg/injection, schedule: Q01DX011 (ip), vehicle: other, higher = larger tumour",97 % of control
same,T/C,"endpoint: mean tumor weight, dose: 2.5 micrograms/kg/injection, schedule: Q01DX011 (ip), vehicle: saline, higher = larger tumour",76 % of control
same,T/C,"endpoint: mean tumor weight, dose: 5.0 micrograms/kg/injection, schedule: Q01DX011 (ip), vehicle: saline, higher = larger tumour",98 % of control
same,T/C,"endpoint: mean tumor weight, dose: 20.0 micrograms/kg/injection, schedule: Q01DX011 (ip), vehicle: saline, higher = larger tumour",100 % of control
O=C(Nc1ccc(C(=O)O)cc1)Oc1ccc(N(CCCl)CCCl)cc1,T/C,[7],100 % of control
same,T/C,[8],100 % of control
same,T/C,[9],88 % of control
O=c1cc(-c2ccccc2)oc2ccc(O)cc12,T/C,"endpoint: mean tumor weight, dose: 3.13 mg/kg/injection, schedule: Q01DX011 (ip), vehicle: saline, higher = larger tumour",109 % of control
same,T/C,"endpoint: mean tumor weight, dose: 6.25 mg/kg/injection, schedule: Q01DX011 (ip), vehicle: saline, higher = larger tumour",68 % of control
same,T/C,"endpoint: mean tumor weight, dose: 25.0 mg/kg/injection, schedule: Q01DX010 (ip), vehicle: saline, higher = larger tumour",77 % of control
same,T/C,[2],119 % of control
same,T/C,"endpoint: mean tumor weight, dose: 50.0 mg/kg/injection, schedule: Q01DX010 (ip), vehicle: saline, higher = larger tumour",101 % of control
same,T/C,"endpoint: mean tumor weight, dose: 100.0 mg/kg/injection, schedule: Q01DX010 (ip), vehicle: saline, higher = larger tumour",86 % of control
same,T/C,"endpoint: mean tumor weight, dose: 200.0 mg/kg/injection, schedule: Q01DX010 (ip), vehicle: saline, higher = larger tumour",97 % of control
